From patent US20080260807A1, “Water-Soluble Films Comprising Nicotine” (Bio Progress Technology Limited, priority 2005, published 2008)

Experiments:
[1] = aqueous solution of hydroxyl ethyl cellulose, Pullulan, polyvinyl pyrollidone and propylene glycol alginate, cast to thin film
From the text: Alternatively, films of the present invention can be made by dissolving NBD in an aqueous solution of hydroxyl ethyl cellulose, Pullulan, polyvinyl pyrollidone (“PVP”), and propylene glycol alginate (“POGA”). This solution can then be cast to form thin films of the present invention. […] Films made according to the process, in addition to comprising embodiments of the present invention, can be used as the base water-soluble film to which the fluid comprising nicotine is applied. Further, or in the alternative, the aqueous solution thus described can comprise the fluid comprising nicotine for application to the base water-soluble film.

[2] = in water or alcohol; cited from earlier work

CN1CCCC1c1cccnc1.O.O.O=C(O)C(O)C(O)C(=O)O (centres unmarked) [Nicotine Bitartrate Dihydrate, nicotine bitartrate dihydrate]
Crystallisation during formation of the film [1]: does not crystallize

CN1CCCC1c1cccnc1 (centres unmarked) [Nicotine]
Solubility [2]: Soluble in water
